Laboratory results published in patent US11608341B2, “Substituted tetrahydropyrazolo[3,4-d]pyrimidines and tetrahydropyrazolo[4,3-d]pyrimidines as C5A receptor modulators” (Idorsia Pharmaceuticals Ltd., priority 2018, dated 2023).
Each block holds one compound with its values, some of them ahead of it.

Biological target: T1, C5AR1 (Homo sapiens, UniProt P21730)
T1 construct: host or cells: CHO-K1
T1 sequence (P21730 1-350): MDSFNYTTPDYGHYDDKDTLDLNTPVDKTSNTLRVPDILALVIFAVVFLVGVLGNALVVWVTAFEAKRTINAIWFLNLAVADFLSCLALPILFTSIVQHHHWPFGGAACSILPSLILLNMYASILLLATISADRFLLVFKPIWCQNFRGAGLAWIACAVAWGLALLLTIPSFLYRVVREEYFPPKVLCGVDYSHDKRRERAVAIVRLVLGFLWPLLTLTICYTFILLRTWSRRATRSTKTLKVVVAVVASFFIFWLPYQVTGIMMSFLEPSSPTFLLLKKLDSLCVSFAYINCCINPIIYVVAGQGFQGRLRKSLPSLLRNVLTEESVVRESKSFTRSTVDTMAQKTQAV
Test: In vitro assay: antagonism of C5a-induced beta-arrestin recruitment (PathHunter) in CHO-K1 C5AR1 beta-arrestin cell line
Assay type: cell-based
Settings: antagonistic activity, 1-10 nM C5a agonist, geometric mean where several measurements, read-out: C5aR IC50
Description: 5 μl Antagonist at 6-fold end concentration or DMSO control is added to assay medium and subsequently 5 μl 1-10 nM C5a agonist at 6 fold end concentration. Cells are centrifuged for 1 min at 1000 rpm and incubated for 1.5 hour in at 37° C. Plates are equilibrated at room temperature for several minutes before adding 12 μl/well Detection Reagent (PathHunter Detection Kit, DiscoverX, Cat #93-0001). Plates are centrifuged for 1 min at 1000 rpm and incubated for 45 minutes at RT before being measured on a Fluostar Optima, BMG Labtech. IC50 values are calculated from a serial dilution range of antagonist using inhouse software and given in nmol/l.
The calculated IC50 values may fluctuate depending on the daily cellular assay performance. Fluctuations of this kind are known to those skilled in the art. Average IC50 values from several measurements are given as geometric mean values.

SMILES: COc1ncnc(OC)c1N1CCC(N2Cc3cn(C)nc3N(Cc3ccccc3C(F)(F)F)C2=O)CC1 [Example 100]
IC50: 339 nM

SMILES: Cc1nccc(F)c1N1CCC(N2Cc3cn(C)nc3N(Cc3ccccc3C(F)(F)F)C2=O)CC1 [Example 86]
IC50: 230 nM

SMILES: CNc1ccc(C(F)(F)F)c(CN2C(=O)N(C3CCN(c4c(C)cccc4F)CC3)Cc3cn(C)nc32)n1 [Example 51]
IC50: 46 nM

SMILES: Cc1cccc(F)c1N1CCC(N2Cc3cn(C4CCCCC4[N+](=O)[O-])nc3N(Cc3ccccc3C(F)(F)F)C2=O)CC1 (stereo not shown) [Example 82]
IC50: 119 nM

SMILES: Cc1cccc(F)c1N1CCC(N2Cc3cn(CC4(C)COC4)nc3N(Cc3ccccc3C(F)(F)F)C2=O)CC1 [Example 166]
IC50: 12 nM

SMILES: Cc1cccc(F)c1N1CCC(N2Cc3cn(C4CN(C(=O)OC5COC5)C4)nc3N(Cc3ccccc3C(F)(F)F)C2=O)CC1 [Example 139]
IC50: 18 nM

SMILES: CNCCn1cc2c(n1)N(Cc1ccccc1C(F)(F)F)C(=O)N(C1CCN(c3c(C)cccc3F)CC1)C2 [Example 59]
IC50: 196 nM

SMILES: Cc1cccc(F)c1N1CCC(N2Cc3cn(C(C)(C)C#N)nc3N(Cc3ccccc3C(F)(F)F)C2=O)CC1 [Example 87]
IC50: 12 nM

SMILES: Cc1cccc(F)c1N1CCC(N2Cc3cn(C4CCN(C(=O)OC(C)(C)C)C4)nc3N(Cc3ccccc3C(F)(F)F)C2=O)CC1 (stereo not shown) [Example 93]
IC50: 17 nM

SMILES: COc1cccc(C)c1N1CCC(N2Cc3cn(C)nc3N(Cc3ccccc3C(F)(F)F)C2=O)CC1 [Example 48]
IC50: 18 nM

SMILES: Cc1cccc(F)c1N1CCC(N2Cc3cn(C(C)(C)C)nc3N(Cc3ccccc3C(F)(F)F)C2=O)CC1 [Example 173]
IC50: 15 nM

SMILES: COC(=O)C(Cl)Cn1cc2c(n1)N(Cc1ccccc1C(F)(F)F)C(=O)N(C1CCN(c3c(C)cccc3F)CC1)C2 (stereo not shown) [Example 42]
IC50: 24 nM

SMILES: Cc1cccc(F)c1N1CCC(N2Cc3cn(CC4(C)CC4)nc3N(Cc3ccccc3C(F)(F)F)C2=O)CC1 [Example 158]
IC50: 11 nM

SMILES: Cc1cccc(F)c1N1CCC(N2Cc3cn(CCN4CCCC4)nc3N(Cc3ccccc3C(F)(F)F)C2=O)CC1 [Example 62]
IC50: 105 nM

SMILES: Cc1cccc(F)c1N1CCC(N2Cc3cn(C(=O)N(C)C)nc3N(Cc3ccccc3C(F)(F)F)C2=O)CC1 [Example 149]
IC50: 70 nM

SMILES: Cc1cccc(F)c1N1CCC(N2Cc3cn(C(=O)OCC(C)C)nc3N(Cc3ccccc3C(F)(F)F)C2=O)CC1 [Example 148]
IC50: 341 nM

SMILES: CCOC(=O)N1CC(n2cc3c(n2)N(Cc2ccccc2C(F)(F)F)C(=O)N(C2CCN(c4c(C)cccc4F)CC2)C3)C1 [Example 126]
IC50: 15 nM

SMILES: C#CC(C)(C)n1cc2c(n1)N(Cc1ccccc1C(F)(F)F)C(=O)N(C1CCN(c3c(C)cccc3F)CC1)C2 [Example 160]
IC50: 147 nM

SMILES: COC[C@@H](O)Cn1cc2c(n1)N(Cc1ccccc1C(F)(F)F)C(=O)N(C1CCN(c3c(C)cccc3F)CC1)C2 [Example 46]
IC50: 21 nM

SMILES: Cc1cccc(F)c1N1CCC(N2Cc3cn(CCO)nc3N(Cc3ccccc3C(F)(F)F)C2=O)CC1 [Example 20]
IC50: 12 nM

SMILES: Cc1cccc(F)c1N1CCC(N2Cc3cn(CC4(F)COC4)nc3N(Cc3ccccc3C(F)(F)F)C2=O)CC1 [Example 164]
IC50: 13 nM

SMILES: Cc1cccc(F)c1N1CCC(N2Cc3cn(CC(C)(C)F)nc3N(Cc3ccccc3C(F)(F)F)C2=O)CC1 [Example 168]
IC50: 6 nM

SMILES: Cc1cccc(C)c1N1CCC(N2Cc3cn(C)nc3N(Cc3ccccc3C(F)(F)F)C2=O)CC1 [Example 47]
IC50: 19 nM

SMILES: Cc1cccc(F)c1N1CCC(N2Cc3cn(C4CN(S(C)(=O)=O)C4)nc3N(Cc3ccccc3C(F)(F)F)C2=O)CC1 [Example 136]
IC50: 163 nM

SMILES: Cc1cccc(F)c1N1CCC(N2Cc3cn(C)nc3N(Cc3ncccc3C(F)(F)F)C2=O)CC1 [Example 22]
IC50: 10 nM

SMILES: CC(=O)N1CC(n2cc3c(n2)N(Cc2ccccc2C(F)(F)F)C(=O)N(C2CCN(c4c(C)cccc4F)CC2)C3)C1 [Example 116]
IC50: 844 nM

SMILES: Cc1cccc(F)c1N1CCC(N2Cc3cn(C4CN(CCF)C4)nc3N(Cc3ccccc3C(F)(F)F)C2=O)CC1 [Example 107]
IC50: 52 nM

SMILES: Cc1cccc(F)c1N1CCC(N2Cc3cn(C)nc3N(Cc3ccccc3C(F)(F)F)C2=O)C1 (stereo not shown) [Example 44]
IC50: 35 nM

Now from value to compound:

IC50: 356 nM
SMILES: Cc1cccc(F)c1N1CCC(N2C(=O)N(Cc3ccccc3C(F)(F)F)c3cn(C4CC4)nc3C2C)CC1 (single isomer, unassigned) [Example 266]

IC50: 24 nM
SMILES: Cc1cccc(F)c1N1CCCC(N2Cc3cn(C)nc3N(Cc3ccccc3C(F)(F)F)C2=O)CC1 (single isomer, unassigned) [Example 226]

IC50: 9 nM
SMILES: Cn1cc2c(n1)N(Cc1ccccc1C1CC1)C(=O)N(C1CCN(c3c(F)cccc3Cl)CC1)C2 [Example 284]

IC50: 3 nM
SMILES: CC1c2cn(C)nc2N(Cc2ccccc2C2CC2)C(=O)N1C1CCN(c2c(F)cccc2Cl)CC1 (single isomer, unassigned) [Example 322]

IC50: 784 nM
SMILES: CC1c2c[nH]nc2N(Cc2ccccc2C(F)(F)F)C(=O)N1C1CCN(c2c(F)cccc2Cl)CC1 (single isomer, unassigned) [Example 351]

IC50: 16 nM
SMILES: Cc1cccc(F)c1N1CCC(N2Cc3nn(CC4CC4)cc3N(Cc3ccccc3C(F)(F)F)C2=O)CC1 [Example 178]

IC50: 8 nM
SMILES: COc1nccc(C)c1N1CCC(N2Cc3cn(CC(C)(F)F)nc3N(Cc3ccccc3C(F)(F)F)C2=O)CC1 [Example 205]

IC50: 16 nM
SMILES: Cn1cc2c(n1)N(Cc1ccccc1C(F)(F)F)C(=O)N(C1CCN(c3c(F)cccc3OC(F)(F)F)CC1)C2 [Example 244]

IC50: 325 nM
SMILES: CC1c2cn(C)nc2N(Cc2ccccc2C(F)(F)F)C(=O)N1C1CCN(c2c(F)cccc2Cl)CC1 (single isomer, unassigned) [Example 320]

IC50: 3 nM
SMILES: CC1c2cn(C3CC3)nc2N(Cc2ccccc2C(F)(F)F)C(=O)N1C1CCN(c2c(F)cccc2Br)CC1 (single isomer, unassigned) [Example 360]

IC50: 69 nM
SMILES: Cc1cccc(F)c1N1CCC(N2Cc3cn(C)nc3N(Cc3cncnc3C(C)C)C2=O)CC1 [Example 249]

IC50: 14 nM
SMILES: CC1c2cn(C)nc2N(Cc2ccccc2C2CC2)C(=O)N1C1CCN(c2c(F)cccc2C2CC2)CC1 (single isomer, unassigned) [Example 325]

IC50: 24 nM
SMILES: CC1c2cn(C3CCCCO3)nc2N(Cc2ccccc2C(F)(F)F)C(=O)N1C1CCN(c2c(F)cccc2Cl)CC1 (stereo not shown) [Example 342]

IC50: 9 nM
SMILES: COc1nccc(C(F)(F)F)c1N1CCC(N2C(=O)N(Cc3ccccc3C(F)(F)F)c3nn(C)cc3C2C)CC1 (single isomer, unassigned) [Example 362]

IC50: 515 nM
SMILES: COc1nccc(C)c1N1CCC(N2C(=O)N(Cc3ccccc3C3CC3)c3cn(C4CC4)nc3C2C)CC1 (single isomer, unassigned) [Example 292]

IC50: 298 nM
SMILES: Cc1cccc(F)c1N1CCC(N2C(=O)N(Cc3ncccc3C(F)(F)F)c3nn(C)cc3C2C)CC1 (single isomer, unassigned) [Example 355]

IC50: 131 nM
SMILES: Cc1cccc(F)c1N1CCC(N2C(=O)N(Cc3ccccc3C3CC3)c3nn(C)cc3C2C)CC1 (single isomer, unassigned) [Example 318]

IC50: 30 nM
SMILES: Cc1cccc(F)c1N1CCC(N2C(=O)N(Cc3ccccc3C(F)(F)F)c3nn(C4CC4)cc3C2C)CC1 (single isomer, unassigned) [Example 310]

IC50: 491 nM
SMILES: Cc1cccc(F)c1N1CCC(N2C(=O)N(Cc3ccccc3C3CC3)c3cn(CC(C)(F)F)nc3C2C)CC1 (single isomer, unassigned) [Example 276]

IC50: 30 nM
SMILES: CCn1cc2c(n1)CN(C1CCN(c3c(C)cccc3F)CC1)C(=O)N2Cc1ccccc1C(F)(F)F [Example 182]

IC50: 9 nM
SMILES: Cn1cc2c(n1)N(Cc1ccccc1C1CC1)C(=O)N(C1CCN(c3c(F)cccc3F)CC1)C2 [Example 285]

IC50: 12 nM
SMILES: Cc1cccc(F)c1N1CCC(N2C(=O)N(Cc3ccccc3C(F)(F)F)c3cn(C4CC4)nc3C2C)CC1 (single isomer, unassigned) [Example 265]

IC50: 11 nM
SMILES: COc1nccc(C(F)F)c1N1CCC(N2C(=O)N(Cc3ccccc3C(F)(F)F)c3n[nH]cc3C2C)CC1 (single isomer, unassigned) [Example 352]

IC50: 5 nM
SMILES: COc1nccc(C)c1N1CCC(N2Cc3cn(C4CC4)nc3N(Cc3ccccc3C(F)(F)F)C2=O)CC1 [Example 209]

IC50: 35 nM
SMILES: Cn1cc2c(n1)CN(C1CCN(c3c(F)cccc3C3CC3)CC1)C(=O)N2Cc1ccccc1C(F)(F)F [Example 304]

IC50: 32 nM
SMILES: Cc1cccc(F)c1N1CCC(N2Cc3nn(COCC[Si](C)(C)C)cc3N(Cc3ncccc3C(F)(F)F)C2=O)CC1 [Example 199]

IC50: 146 nM
SMILES: COc1nccc(C(F)(F)F)c1N1CCC(N2C(=O)N(Cc3ccccc3C3CC3)c3nn(C)cc3C2C)CC1 (single isomer, unassigned) [Example 375]

IC50: 77 nM
SMILES: Cc1cccc(F)c1N1CCC(N2C(=O)N(Cc3ccccc3C(F)(F)F)c3nn(C)cc3C2C)CC1 (single isomer, unassigned) [Example 221]

IC50: 69 nM
SMILES: Cn1cc2c(n1)CN(C1CCN(c3c(F)cccc3C(F)F)CC1)C(=O)N2Cc1ccccc1C(F)(F)F [Example 301]

IC50: 11 nM
SMILES: Cc1cccc(F)c1N1CCC(N2Cc3nn(CC4(C)CC4)cc3N(Cc3ccccc3C(F)(F)F)C2=O)CC1 [Example 180]
